“Also recorded” adds a separate entry of the source.
Experiments:
Assay type in all cases: cell-based
[1] = molecular target: T1, TXNIP-TRX complex (Homo sapiens, UniProt Q9H3M7); assay: Co-IP of TXNIP with TRX in THP1 monocytes treated with compounds under high glucose
T1 construct: Co-immunoprecipitation (Co-IP) of TXNIP with TRX in THP 1 monocytes cells treated with compounds under high glucose condition; endogenous in cells; host or cells: THP1 human monocytes cultured in 25 mM glucose
T1 sequence (Q9H3M7 1-391): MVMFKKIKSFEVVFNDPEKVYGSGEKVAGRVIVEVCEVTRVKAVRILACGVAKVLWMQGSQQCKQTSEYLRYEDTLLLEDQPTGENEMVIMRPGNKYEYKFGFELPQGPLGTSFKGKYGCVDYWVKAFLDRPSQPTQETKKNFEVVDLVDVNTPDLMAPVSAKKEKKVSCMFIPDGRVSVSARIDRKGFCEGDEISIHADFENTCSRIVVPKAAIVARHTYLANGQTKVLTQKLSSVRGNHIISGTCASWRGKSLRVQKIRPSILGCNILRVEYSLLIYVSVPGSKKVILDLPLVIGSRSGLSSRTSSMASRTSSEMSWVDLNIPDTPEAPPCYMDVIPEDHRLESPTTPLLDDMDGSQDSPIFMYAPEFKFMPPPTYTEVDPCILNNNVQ
Description: FIGS. 4A-4B. Co-IP with anti-TRX in THP 1 cells treated with compounds under high glucose condition. THP1 cells were treated by 10 uM compounds over night, then glucose was added up to 25 mM. The cells were cultured for 72-96 h. Cell extracts were prepared using cell extract buffer (Thermo Fisher Scientific) and Co-IP were performed with mouse anti-TRX (abcam).
Assay 1: Co-immunoprecipitation (Co-IP) of TXNIP with TRX in THP 1 monocytes cells treated with compounds under high glucose condition. In this assay, we looked for compounds that can interfere with the interaction between TXNIP and TRX in THP-1 monocytes treated with HG. So here compounds are added to cells in culture. […] So we picked the candidates only if the results are repeatable.
Co-IP with compounds treated THP1 under high glucose condition. THP1 cells were treated with compounds (2.5 uM) overnight and glucose was add to 25 mM and culture for 3-5 days, then coIP were carried using co-IP protocol.
1. Transfer the cultured cells from the culture dish to a 15-mL conical tube. 2. Centrifuge at 500×g for 2 min at 4° C. and remove the supernatant. 3. Wash with ice-cold PBS and centrifuge at 500×g for 2 min at 4° C. Remove the supernatant. 4. Repeat Step 3 twice.
5. Resuspend the cell pellet in ice-cold cell lysis buffer (1 mL per 1×10^7 cells) and incubate on ice for 10 min. 6. Sonicate cells in ice bath three times for 5 second pulses each. 7. Centrifuge at 13,000×g at 4° C. for 10 min, and transfer the supernatant to a fresh tube. Store the tube on ice for further use, or for long storage at −80° C.
8. Resuspend the magnetic beads by pipetting up and down for several times. 9. Transfer 20 μL of bead slurry to a fresh tube. Place the tube in a magnetic separation rack […]. Carefully remove the supernatant once the solution is clear. 10. […]
Note: Pre-clearing the lysate is recommended to reduce the non-specific binding. However, if the protein is detected by western blotting, pre-clearing may not be necessary unless a contaminating protein is interfering with visualization of the protein of interest. […]

[2] = test system: TNF-α mRNA; assay: TNF-α mRNA expression (RT-PCR) in murine RAW macrophages; settings: RAW cells, 25 mM glucose, 72 h (FIG. 10B)
Description: FIGS. 10A-10B. FIG. 10A. […] RAW cells were cultured in 25 mM glucose with C1 (uM) for 72 h. Total RNA was prepared. RT-PCR was performed. Data shown are the mean+SEM from triplicates. Statistical analysis was performed for each column vs. high glucose (HG) DMSO using one-way ANOVA: *<0.0001. FIG. 10B. […] RAW cells were cultured in 25 mM glucose with C1 (uM) for 72 hours. Total RNA was prepared. RT-PCR was performed. Data shown are the mean+SEM from triplicates. Statistical analysis was performed for each column vs. HG DMSO using one-way ANOVA: *<0.0001.
(§1) RNA extraction and quantitative RT-PCR. RNA was extracted using the Direct-zol™ RNA MiniPrep Plus (Zymo Research). Reverse transcription of RNA samples into cDNA was performed using the GeneAmp RNA PCR Kit (Applied Biosystems), dNTP (from Roche Applied Science), Rnase inhibitor, MULV Reverse Transcriptase and Random hexamers reagent (all from Invitrogen). Diluted cDNA was quantified using real-time PCR performed with Power SYBR Green qPCR MasterMix (Applied Biosystem) and 7500 real-time PCR system (Applied Biosystems). The HPRT1 gene was used as an internal control.

[3] = test system: TNF-α mRNA; assay: TNF-α mRNA expression (RT-PCR) in human 1.1B4 pancreatic β cells; settings: 1.1B4 β cells, 25 mM glucose, 72 h (FIG. 12 right)
Description: FIG. 12. […] Human 1.1B4 β cells were cultured in 25 mM glucose with C1 (uM) for 72 h. Total RNA was prepared. RT-PCR was performed. Data shown are the mean+SEM from triplicates. Statistical analysis was performed for each column vs. HG DMSO using one-way ANOVA: *<0.0001.
as §1

With `CC(C)C(C(=O)O)N1C(=O)c2ccncc2C1=O` (stereo not shown) [Compound C1, 2-(1,3-dioxo-1,3-dihydro-2H-pyrrolo[3,4-c]pyridin-2-yl)-3-methylbutanoic acid] the “TXNIP association/interaction with TRX (co-IP, blot with TXNIP antibody)” value ([1]; THP1, 25 mM glucose, 5 uM C1, 16-72 h time course, nuclear cell extracts) was “Inhibition of TXNIP-TRX interaction; also recorded: significantly reduced at 48 h”, the “HG-induced TXNIP-TRX co-IP band intensity” value ([1]; THP1 cells, compounds added to cells in culture overnight, glucose to 25 mM, 72-96 h, anti-TRX IP) was “inhibit high glucose-induced TXNIP-TRX co-immunoprecipitation; also recorded: reproducibly shows a reduction in the HG-induced band” and the “TNF-α mRNA expression” value [2] was “decreased TNF-α mRNA expression; also recorded: inhibited TXNIP and TNF-α mRNA expression”. For the same compound, the “TNF-α mRNA expression” value [3] was “affects TXNIP and TNF-α mRNA expression; also recorded: decreased TNF-α expression”.

— patent US11974990B2, “TXNIP-TRX complex inhibitors and methods of using the same” (City of Hope, priority 2018, dated 2024)
